According to patent publication US20240415123A1, “METHODS AND COMPOSITIONS FOR ICAFOLIN HERBICIDE TOLERANCE” (Monsanto Technology LLC, priority 2023, published 2024):

What was measured:
Format in all cases: in vivo
[1] = test system: control (wild-type) soybean plants; assay: Icafolin herbicide injury rating, greenhouse spray, control soybean; conditions: for Percent Injury 13 DAT / Percent Injury 14 DAT / Percent Injury 15 DAT / Percent injury 21 DAT: Control
Description: (§1) Herbicide tolerance screens were performed by selecting R1 plants at roughly the V2-V3 developmental stage and applying icafolin herbicide with a track sprayer under standard greenhouse conditions. Two independent transgenic events per transgene were screened. The herbicide was formulated with 1% v/v methylated seed oil (MSO) and 2.5% v/v ammonium sulfate (AMS) and sprayed with a XR nozzle at 15 gallons per […] (GPA) to mimic field conditions. The icafolin used in this Example and in the experiments described in Examples 2-4 was a mixture of the methyl ester forms of the 2R, 4R and 2S, 4S isomers. The icafolin formulation was sprayed at two rates: 5 g active ingredient (ai)/hectare (ha) and 25 g ai/ha. The herbicide treated soybean plants were returned to the greenhouse following spray application and allowed to grow under standard conditions. Plants were rated for herbicide injury at approximately 14 and 21 days after treatment (DAT). Untreated transgenic plants and control (wild-type) plants were used for phenotypic comparison. The herbicide injury rating accounts for plant malformation, stunting, chlorosis, necrosis, and plant death relative to the untreated control plants. An injury rating of approximately 90% or above indicates nearly complete plant death. An injury rating of less than 30% indicates partial tolerance, and an injury rating of less than 20% indicates good tolerance. Injury ratings were collected and analyzed, and photographs of representative plants were taken.
(§2) Herbicide tolerance screening was performed by selecting R1 plants at roughly the V2-V3 developmental stage and applying the icafolin herbicide in a track sprayer under standard greenhouse conditions. Two independent transgenic events per transgene were selected for screening. The herbicide was formulated with 1% v/v methylated seed oil (MSO) and 2.5% v/v ammonium sulfate (AMS) and sprayed with a XR nozzle at 15 gallons per […] (GPA) to mimic field conditions. The icafolin formulation was sprayed at two rates: 5 g active ingredient (ai)/hectare (ha) and 25 g ai/ha. The treated soybean plants were returned to the greenhouse following spray application and allowed to grow under standard conditions. The plants were rated for herbicide injury at approximately 14 and 21 days after treatment (DAT). Untreated transgenic plants and control (wild-type) plants were used for phenotypic comparison. The herbicide injury rating accounts for plant malformation, stunting, chlorosis, necrosis, and plant death relative to the untreated control plants. An injury rating of approximately 90% or above indicates nearly complete plant death. An injury rating of less than 30% indicates partial tolerance and an injury rating of less than 20% indicates good tolerance. Injury ratings were collected and analyzed, and photographs of representative plants were taken.
as §2, with “13” for “14”, “An injury rating of approximately 90% or above indicates nearly complete plant death. An injury rating of less than 30% indicates partial tolerance and an injury rating of less than 20% indicates good tolerance. Injury ratings were collected and analyzed, and photographs of representative plants were taken.” left out

[2] = test system: soybean event transformed with a non-herbicide tolerance construct (negative control); assay: Field trial icafolin injury rating, negative control soybean; conditions: averaged across repetitions and field locations
Description: Soy transgenic plants expressing CYP14 or CYP15 were assayed in small scale field trails across nine sites in the United States for tolerance to icafolin spray applications. The plants were grown in field plots and sprayed during the early vegetative stages when plants were roughly at the V3 stage. The icafolin formulation was sprayed at either a 5 g ai/ha or 25 g ai/ha application rate with 2 treatment replications per location. The plants were rated for herbicide injury at 7, 14, 21, and 28 days after treatment (DAT). A total of 12 events for CYP14 and 11 events for CYP15 were tested. An event transformed with a non-herbicide tolerance construct served as a negative control to provide a comparison for injury.

[3] = test system: transgenic soybean plants expressing CYP14; assay: Icafolin herbicide injury rating, greenhouse spray, CYP14 soybean
Description: The codon-optimized polynucleotide sequences were placed into plant transformation cassettes with each CYP coding sequence operably-linked to a constitutive expression element comprising the promoter, leader, and intron sequence of Arabidopsis thaliana Ubiquitin 3 (SEQ ID NO:14) and a Medicago truncatula photosystem II terminator (SEQ ID NO:15). Four plant transformation vectors were created, each comprising one of the CYP gene expression cassettes and an aadA selectable marker expression cassette, conferring resistance to the antibiotics spectinomycin and streptomycin. Soybean cultivar AG3555 seed-derived embryo explants were transformed with the vectors by Agrobacterium-mediated transformation using known methods in the art, and transformed plantlets were selected based on growth in the presence of spectinomycin. Plantlets comprising single copy events were grown in the greenhouse to produce R1 seeds. R1 plants were subsequently selected for homozygous CYP-positive plants, either by molecular analysis of young leaf tissue or by seed chipping prior to planting. These selected plants were then screened for tolerance to icafolin herbicide.
as §1

[4] = 5 g ai/ha icafolin, Experiment 1
[5] = 25 g ai/ha icafolin, Experiment 1
[6] = CYP14 Event 267, 5 g ai/ha icafolin, Experiment 2
[7] = CYP14 Event 267, 5 g ai/ha icafolin, Experiment 1
[8] = CYP14 Event 267, 25 g ai/ha icafolin, Experiment 2
[9] = CYP14 Event 267, 25 g ai/ha icafolin, Experiment 1
[10] = CYP14 Event 280, 5 g ai/ha icafolin, Experiment 2
[11] = CYP14 Event 280, 25 g ai/ha icafolin, Experiment 2
[12] = CYP14 Event 309, 5 g ai/ha icafolin, Experiment 2
[13] = CYP14 Event 309, 5 g ai/ha icafolin, Experiment 1
[14] = CYP14 Event 309, 25 g ai/ha icafolin, Experiment 2
[15] = CYP14 Event 309, 25 g ai/ha icafolin, Experiment 1
[16] = CYP14 Event 324, 5 g ai/ha icafolin, Experiment 2
[17] = CYP14 Event 324, 25 g ai/ha icafolin, Experiment 2

With `C=C[C@]1(C(=O)N[C@H]2CO[C@@H](C(=O)OC)C2)CC(c2cc(F)cc(F)c2)=NO1` (relative stereo) [icafolin, methyl(2R*,4R*)-4-[[(5S)-3-(3,5-difluorophenyl)-5-vinyl-4H-isoxazole-5-carbonyl]amino]tetrahydrofuran-2-carboxylate] the “Percent Injury 13 DAT” value ([1]; 5 g ai/ha icafolin, 13 DAT, Table 10 (Example 4)) was 42.5%, the “Percent Injury 14 DAT” value ([1]; 5 g ai/ha icafolin, 14 DAT, Experiment 2) was 61% and the “Percent Injury 14 DAT” value ([1]; 5 g ai/ha icafolin, 14 DAT, Table 8 (Example 3)) was 45.0%. The “Percent Injury 15 DAT” value [1, 4] was 42%, the “Percent injury 21 DAT” value [1, 4] was 50% and the “Percent injury 21 DAT” value ([1]; 5 g ai/ha icafolin, Experiment 2) was 49%. For the same molecule, the “Percent injury 21 DAT” value ([1]; 5 g ai/ha icafolin, Table 8 (Example 3)) was 35.6%, the “Percent injury 21 DAT” value ([1]; 5 g ai/ha icafolin, Table 10 (Example 4)) was 35.0% and the “Percent Injury 13 DAT” value ([1]; 25 g ai/ha icafolin, 13 DAT, Table 10 (Example 4)) was 70.0%. For the same molecule, the “Percent Injury 14 DAT” value ([1]; 25 g ai/ha icafolin, 14 DAT, Experiment 2) was 90%, the “Percent Injury 14 DAT” value ([1]; 25 g ai/ha icafolin, 14 DAT, Table 8 (Example 3)) was 78.1% and the “Percent Injury 15 DAT” value [1, 5] was 75%. The “Percent injury 21 DAT” value [1, 5] was 81%, the “Percent injury 21 DAT” value ([1]; 25 g ai/ha icafolin, Experiment 2) was 91% and the “Percent injury 21 DAT” value ([1]; 25 g ai/ha icafolin, Table 8 (Example 3)) was 83.1%. The “Percent injury 21 DAT” value ([1]; 25 g ai/ha icafolin, Table 10 (Example 4)) was 79.4%, the “injury” value ([1]; control, 25 g ai/ha, 13 DAT, Example 4) was “about 70%” and the “injury” value ([1]; control, 25 g ai/ha, 14 DAT, Example 3) was “about 78%”. For the same molecule, the “injury” value ([1]; treated control (wild-type), 5 g ai/ha, Example 1) was “around 50%”, the Injury in words ([1]; treated control (wild-type), 5 g ai/ha, Experiment 1) was “heavily injured” and the Injury in words ([1]; treated control (wild-type), 25 g ai/ha, Experiment 1) was “nearly completely killed”. The “injury” value ([1]; treated control, 5 g ai/ha, 13 DAT, Example 4) was “around 42%”, the “injury” value ([1]; treated control, 5 g ai/ha, 14 DAT, Example 3) was “around 45%” and the “injury” value ([1]; treated controls, 25 g ai/ha, Example 1) was “around 90%”. For the same molecule, the “Percent Plant Injury (21 DAT)” value ([2]; 5 g ai/ha icafolin) was 18.9%, the “Percent Plant Injury (21 DAT)” value ([2]; 25 g ai/ha icafolin) was 62.8% and the “Percent Injury 14 DAT” value [3, 6] was 32%. For the same molecule, the “Percent Injury 15 DAT” value [3, 7] was 14%, the “Percent injury 21 DAT” value [3, 7] was 12% and the “Percent injury 21 DAT” value [3, 6] was 20%. The “Percent Injury 14 DAT” value [3, 8] was 79%, the “Percent Injury 15 DAT” value [3, 9] was 39% and the “Percent injury 21 DAT” value [3, 9] was 47%. The “Percent injury 21 DAT” value [3, 8] was 57%, the “Percent Injury 14 DAT” value [3, 10] was 19% and the “Percent injury 21 DAT” value [3, 10] was 12%. For the same molecule, the “Percent Injury 14 DAT” value [3, 11] was 64%, the “Percent injury 21 DAT” value [3, 11] was 35% and the “Percent Injury 14 DAT” value [3, 12] was 37%. The “Percent Injury 15 DAT” value [3, 13] was 33%, the “Percent injury 21 DAT” value [3, 13] was 36% and the “Percent injury 21 DAT” value [3, 12] was 22%. The “Percent Injury 14 DAT” value [3, 14] was 90%, the “Percent Injury 15 DAT” value [3, 15] was 71% and the “Percent injury 21 DAT” value [3, 15] was 81%. The “Percent injury 21 DAT” value [3, 14] was 89%, the “Percent Injury 14 DAT” value [3, 16] was 48% and the “Percent injury 21 DAT” value [3, 16] was 30%. For the same molecule, the “Percent Injury 14 DAT” value [3, 17] was 75%, the “Percent injury 21 DAT” value [3, 17] was 66% and the Tolerance to icafolin ([3]; in vivo) was “unexpected tolerance”. The “injury” value ([3]; in vivo) was “less than 30%”.
